In PubChem BioAssay AID2060513 (Molecular Pharmacology Branch, DTP, NCI, 2025):

Test system: 299254-011-R-J1-PDC complex spheroids viability
Assay: Anticancer human tumor 299254-011-R-J1-PDC patient-derived melanoma cell line growth inhibition [GQUAD]
Conditions: for viability, T/C: stronger effect = lower value; for IC50: curve of first compound
Text: DNA G-quadruplex Stabilizer Agents in Combinations in Complex Spheroids
A high-throughput screen of multi-cell type tumor spheroids was designed to identify active combinations of DNA G-quadruplex stabilizer agents and targeted small molecules. Complex spheroids include a stromal component modeled by human endothelial cells (HUVEC) and fibroblasts modeled by human mesenchymal stem cells (MSCs). The concentration ranges selected for each drug and investigational agent were based upon clinically achievable concentrations if the clinical Cmax of the agent was known.
Compounds. The drugs and investigational agents: pidnarulex (CX-5461; NSC782164), APTO-253 (NSC789042), BRACO-19 (NSC847499), peposertib (NSC802822), ceralasertib (NSC780249), elimusertib (NSC800525), camonsertib (NSC841442), AZD-1390 (NSC803789), olaparib (NSC753686), talazoparib (NSC767125), ART-558 (NSC835418), sotorasib (NSC818433), MRTX-1133 (NSC836407), SN-38 (NSC673596), topotecan (NSC609699), etoposide (NSC141540), doxorubicin (NSC123127), gemcitabine (NSC613327), 5-fluorouracil (NSC19893), paclitaxel (NSC125973), vemurafenib (NSC761431), panobinostat (NSC761190), R-306465 (JNJ-16241199; NSC773264), adavosertib (NSC754352), TP-3654 (NSC805149), carboplatin (NSC241240), KSQ-4279 (NSC840948), and staurosporine (NSC755774) were obtained from the National Cancer Institute (NCI) Developmental Therapeutics Program Chemical Repository (34). The FDA-approved anticancer drug set is available from the NCI Developmental Therapeutics Program. […] The stock solutions were prepared in dimethyl sulfoxide (DMSO, Sigma-Aldrich, St. Louis, MO, cat. D2650) at 800-fold the tested concentration and stored at -70 degrees C prior to their use. All drugs and investigational agents were tested over a range starting from a high concentration at or near the clinical Cmax and decreasing in half-log increments. If the clinical Cmax for an agent had not been determined, the highest concentration tested was 10 microM.
2.3 Cell Culture. All cells were maintained in an incubator at 37 degrees C and 5% CO2 with 95% humidity. The PDC lines were cultured according to standard operating procedures established by the NCI PDMR. All PDCs were thawed and cultured in Matrigel-coated flasks prepared with a working solution of 1X Ham's F-12 nutrient mix, without supplementation (Invitrogen, cat. 11765054), 100 U/mL penicillin-streptomycin (Invitrogen, cat. 15140122), and 2.5% Matrigel (Corning Inc., cat. 354248) for the first three passages. The 857933-349-R-J2-PDC line was cultured in 6C/Colon 1B media, which includes advanced DMEM/F-12 (Thermo Fisher Scientific, cat. 12634028), 10 mM HEPES (Thermo Fisher Scientific, cat. 15630080), 1X GlutaMAX supplement (Thermo Fisher Scientific, cat. 35050061), 0.1 mg/mL primocin (InvivoGen, cat. ant-pm-2), 10% defined fetal bovine serum, heat inactivated (HyClone Laboratories Inc., cat. SH30070.03HI), 50% L-WRN conditioned media (ATCC, cat. CRL-3276), 1.25 mM N-Acetyl-L-cysteine (Sigma-Aldrich, cat. A9165), 10 mM nicotinamide (Sigma-Aldrich, cat. N0636), 1X B-27 supplement (Thermo Fisher Scientific, cat. 17504044), 1X N-2 supplement (Thermo Fisher Scientific, cat. 17502048), 10 microM Y-27632 dihydrochloride (Tocris Bioscience, cat. 1254), and 50 ng/mL human EGF recombinant protein (Thermo Fisher Scientific, cat. PHG0311). The 485176-168-R4-J1-PDC line was cultured in Panc media, which includes all 6C/Colon 1B media components plus 100 ng/mL human FGF-10 (Thermo Fisher Scientific, cat. 100-26), 500 nM SB-431542 (Selleckchem, cat. S1067), and gastrin (Tocris, cat. 3006).
[…]

[1] = second compound 0.0316 µM, first compound 0.0316 µM
[2] = second compound 0.0316 µM, first compound 0.316 µM
[3] = second compound 0.1 µM, first compound 0.0316 µM
[4] = second compound 0.1 µM, first compound 0.316 µM
[5] = second compound 0.316 µM, first compound 0.0316 µM
[6] = second compound 0.316 µM, first compound 0.316 µM
[7] = second compound 1 µM, first compound 0.0316 µM
[8] = second compound 1 µM, first compound 0.316 µM
[9] = second compound 3.16 µM, first compound 0.0316 µM
[10] = second compound 3.16 µM, first compound 0.316 µM
[11] = second compound 10 µM, first compound 0.0316 µM
[12] = second compound 10 µM, first compound 0.316 µM
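Further: spheroids exposed to the agents for seven days before readout.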
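Wherever viability, T/C is given: percent viability relative to DMSO vehicle control wells = 100%.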

**Q.** With `Cc1cnc(CNC(=O)c2c(=O)c3ccc(N4CCCN(C)CC4)nc3n3c2sc2ccccc23)cn1` as the molecule, how does the viability, T/C (compound 0.316 µM) read?
**A.** 100% [middle of 12 runs]

**Q.** Which results are given for `Cc1cccc(N(C)C(=O)C2C(O)CCN2c2nc(C)cc(C(F)(F)F)c2C#N)c1` (stereo not given) + CN(C)c1ccc(Nc2c3ccc(NC(=O)CCN4CCCC4)cc3nc3cc(NC(=O)CCN4CCCC4)ccc23)cc1?
**A.** IC50 (second compound 0.0316 µM): > 10 µM; IC50 (second compound 0.1 µM): > 10 µM; IC50 (second compound 0.316 µM): > 10 µM; IC50 (second compound 1 µM): > 10 µM; IC50 (second compound 3.16 µM): > 10 µM; IC50 (second compound 10 µM): > 10 µM; viability, T/C [1]: 118%; viability, T/C (second compound 0.0316 µM, first compound 0.1 µM): 96.8%; viability, T/C [2]: 84.9%; viability, T/C (second compound 0.0316 µM, first compound 1 µM): 80.5%; viability, T/C (second compound 0.0316 µM, first compound 3.16 µM): 99.2%; viability, T/C (second compound 0.0316 µM, first compound 10 µM): 86%; viability, T/C [3]: 116%; viability, T/C (second compound 0.1 µM, first compound 0.1 µM): 84.9%; viability, T/C [4]: 89.2%; viability, T/C (second compound 0.1 µM, first compound 1 µM): 83.4%; viability, T/C (second compound 0.1 µM, first compound 3.16 µM): 90.4%; viability, T/C (second compound 0.1 µM, first compound 10 µM): 81.5%; viability, T/C [5]: 103%; viability, T/C (second compound 0.316 µM, first compound 0.1 µM): 100%; viability, T/C [6]: 90.5%; viability, T/C (second compound 0.316 µM, first compound 1 µM): 103%; viability, T/C (second compound 0.316 µM, first compound 3.16 µM): 95.6%; viability, T/C (second compound 0.316 µM, first compound 10 µM): 103%; viability, T/C [7]: 94.9%; viability, T/C (second compound 1 µM, first compound 0.1 µM): 105%; viability, T/C [8]: 99.5%; viability, T/C (second compound 1 µM, first compound 1 µM): 100%; viability, T/C (second compound 1 µM, first compound 3.16 µM): 105%; viability, T/C (second compound 1 µM, first compound 10 µM): 81.3%; viability, T/C [9]: 108%; viability, T/C (second compound 3.16 µM, first compound 0.1 µM): 99.6%; viability, T/C [10]: 98.6%; viability, T/C (second compound 3.16 µM, first compound 1 µM): 108%; viability, T/C (second compound 3.16 µM, first compound 3.16 µM): 84.1%; viability, T/C (second compound 3.16 µM, first compound 10 µM): 80.4%; viability, T/C [11]: 102%; viability, T/C (second compound 10 µM, first compound 0.1 µM): 79.4%; viability, T/C [12]: 98.7%; viability, T/C (second compound 10 µM, first compound 1 µM): 110%; viability, T/C (second compound 10 µM, first compound 3.16 µM): 77.4%; viability, T/C (second compound 10 µM, first compound 10 µM): 67.6%

**Q.** For `Cn1ncnc1[C@H]1c2n[nH]c(=O)c3cc(F)cc(c23)N[C@@H]1c1ccc(F)cc1` + CN(C)c1ccc(Nc2c3ccc(NC(=O)CCN4CCCC4)cc3nc3cc(NC(=O)CCN4CCCC4)ccc23)cc1, which IC50 (second compound 0.0316 µM) is on record?
**A.** > 0.316 µM

**Q.** What about the IC50 (second compound 0.1 µM) of the same molecule?
**A.** > 0.316 µM

**Q.** And the IC50 (second compound 0.316 µM)?
**A.** > 0.316 µM

**Q.** What about the IC50 (second compound 1 µM) of the same molecule?
**A.** > 0.316 µM

**Q.** And the IC50 (second compound 3.16 µM)?
**A.** > 0.316 µM

**Q.** And the IC50 (second compound 10 µM)?
**A.** > 0.316 µM

**Q.** And the viability, T/C (second compound 0.0316 µM, first compound 0.000999 µM)?
**A.** 108%

**Q.** What about the viability, T/C (second compound 0.0316 µM, first compound 0.00316 µM) of the same molecule?
**A.** 101%

**Q.** What about the viability, T/C (second compound 0.0316 µM, first compound 0.00999 µM) of the same molecule?
**A.** 100%

**Q.** What about the viability, T/C [1] of the same molecule?
**A.** 101%

**Q.** And the viability, T/C (second compound 0.0316 µM, first compound 0.0999 µM)?
**A.** 105%

**Q.** And the viability, T/C [2]?
**A.** 83.8%

**Q.** And the viability, T/C (second compound 0.1 µM, first compound 0.000999 µM)?
**A.** 90.5%

**Q.** What about the viability, T/C (second compound 0.1 µM, first compound 0.00316 µM) of the same molecule?
**A.** 109%

**Q.** And the viability, T/C (second compound 0.1 µM, first compound 0.00999 µM)?
**A.** 107%

**Q.** What about the viability, T/C [3] of the same molecule?
**A.** 102%

**Q.** And the viability, T/C (second compound 0.1 µM, first compound 0.0999 µM)?
**A.** 86.9%

**Q.** What about the viability, T/C [4] of the same molecule?
**A.** 87.5%

**Q.** And the viability, T/C (second compound 0.316 µM, first compound 0.000999 µM)?
**A.** 110%

**Q.** What about the viability, T/C (second compound 0.316 µM, first compound 0.00316 µM) of the same molecule?
**A.** 90.3%

**Q.** And the viability, T/C (second compound 0.316 µM, first compound 0.00999 µM)?
**A.** 100%

**Q.** And the viability, T/C [5]?
**A.** 106%

**Q.** What about the viability, T/C (second compound 0.316 µM, first compound 0.0999 µM) of the same molecule?
**A.** 93.1%

**Q.** And the viability, T/C [6]?
**A.** 97.8%

**Q.** And the viability, T/C (second compound 1 µM, first compound 0.000999 µM)?
**A.** 121%

**Q.** What about the viability, T/C (second compound 1 µM, first compound 0.00316 µM) of the same molecule?
**A.** 84.5%

**Q.** And the viability, T/C (second compound 1 µM, first compound 0.00999 µM)?
**A.** 98.4%

**Q.** What about the viability, T/C [7] of the same molecule?
**A.** 92.8%

**Q.** What about the viability, T/C (second compound 1 µM, first compound 0.0999 µM) of the same molecule?
**A.** 98.6%

**Q.** What about the viability, T/C [8] of the same molecule?
**A.** 92.6%

**Q.** What about the viability, T/C (second compound 3.16 µM, first compound 0.000999 µM) of the same molecule?
**A.** 110%

**Q.** And the viability, T/C (second compound 3.16 µM, first compound 0.00316 µM)?
**A.** 98.2%

**Q.** And the viability, T/C (second compound 3.16 µM, first compound 0.00999 µM)?
**A.** 101%

**Q.** And the viability, T/C [9]?
**A.** 105%

**Q.** And the viability, T/C (second compound 3.16 µM, first compound 0.0999 µM)?
**A.** 112%

**Q.** And the viability, T/C [10]?
**A.** 100%

**Q.** And the viability, T/C (second compound 10 µM, first compound 0.000999 µM)?
**A.** 87%

**Q.** What about the viability, T/C (second compound 10 µM, first compound 0.00316 µM) of the same molecule?
**A.** 85.2%

**Q.** And the viability, T/C (second compound 10 µM, first compound 0.00999 µM)?
**A.** 89.8%

**Q.** And the viability, T/C [11]?
**A.** 101%

**Q.** And the viability, T/C (second compound 10 µM, first compound 0.0999 µM)?
**A.** 93.9%

**Q.** And the viability, T/C [12]?
**A.** 109%
